# From PubChem BioAssay (NCI)
#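 Test compounds were applied to cells in 96-well plates for 48 hours at 5 doses. Abbreviation: GI50, concentration required for 50% inhibition of growth. TGI: concentration producing complete growth inhibition.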
# Assays:
# Assay in all cases: DTP human tumour cell line panel, 48 h
# 786-0 renal = system: 786-0 renal
# A549 NSCLC = system: A549 NSCLC
# ACHN renal = system: ACHN renal
# BT-549 breast = system: BT-549 breast
# CAKI-1 renal = system: CAKI-1 renal
# CCRF-CEM leukemia = system: CCRF-CEM leukemia
# COLO 205 colon = system: COLO 205 colon
# DU-145 prostate = system: DU-145 prostate
# EKVX NSCLC = system: EKVX NSCLC
# HCC-2998 colon = system: HCC-2998 colon
# HCT-116 colon = system: HCT-116 colon
# HCT-15 colon = system: HCT-15 colon
# HL-60(TB) leukemia = system: HL-60(TB) leukemia
# HOP-62 NSCLC = system: HOP-62 NSCLC
# HOP-92 NSCLC = system: HOP-92 NSCLC
# HS 578T breast = system: HS 578T breast
# HT29 colon = system: HT29 colon
# IGROV1 ovarian = system: IGROV1 ovarian
# K-562 leukemia = system: K-562 leukemia
# KM12 colon = system: KM12 colon
# LOX IMVI melanoma = system: LOX IMVI melanoma
# M14 melanoma = system: M14 melanoma
# MALME-3M melanoma = system: MALME-3M melanoma
# MCF7 breast = system: MCF7 breast
# MDA-MB-231 breast = system: MDA-MB-231 breast
# MDA-MB-435 = system: MDA-MB-435
# MOLT-4 leukemia = system: MOLT-4 leukemia
# NCI-H226 lung = system: NCI-H226 lung
# NCI-H23 lung = system: NCI-H23 lung
# NCI-H460 lung = system: NCI-H460 lung
# NCI-H522 lung = system: NCI-H522 lung
# NCI/ADR-RES ovarian = system: NCI/ADR-RES ovarian
# OVCAR-3 ovarian = system: OVCAR-3 ovarian
# OVCAR-4 ovarian = system: OVCAR-4 ovarian
# OVCAR-5 ovarian = system: OVCAR-5 ovarian
# OVCAR-8 ovarian = system: OVCAR-8 ovarian
# PC-3 prostate = system: PC-3 prostate
# RPMI-8226 leukemia = system: RPMI-8226 leukemia
# RXF 393 renal = system: RXF 393 renal
# SF-268 CNS = system: SF-268 CNS
# SF-295 CNS = system: SF-295 CNS
# SF-539 CNS = system: SF-539 CNS
# SK-MEL-2 melanoma = system: SK-MEL-2 melanoma
# SK-MEL-28 melanoma = system: SK-MEL-28 melanoma
# SK-MEL-5 melanoma = system: SK-MEL-5 melanoma
# SK-OV-3 ovarian = system: SK-OV-3 ovarian
# SN12C renal = system: SN12C renal
# SNB-19 CNS = system: SNB-19 CNS
# SNB-75 CNS = system: SNB-75 CNS
# SR leukemia = system: SR leukemia
# SW-620 colon = system: SW-620 colon
# T-47D breast = system: T-47D breast
# TK-10 renal = system: TK-10 renal
# U251 CNS = system: U251 CNS
# UACC-257 melanoma = system: UACC-257 melanoma
# UACC-62 melanoma = system: UACC-62 melanoma
# UO-31 renal = system: UO-31 renal
structure (smiles),measurement,setting,value
CO[C@H]1CC(c2ccc[nH]2)=N[C@]12O[C@@H](C)C[C@@H]1CCCCCCCc3ccc([nH]3)[C@H]12,GI50,786-0 renal,1250 nM
same,TGI,786-0 renal,6.53 µM
same,GI50,A549 NSCLC,1040 nM
same,TGI,A549 NSCLC,7.31 µM
same,GI50,ACHN renal,1220 nM
same,TGI,ACHN renal,4.76 µM
same,GI50,BT-549 breast,1210 nM
same,TGI,BT-549 breast,9.31 µM
same,GI50,CAKI-1 renal,1180 nM
same,TGI,CAKI-1 renal,11.3 µM
same,GI50,CCRF-CEM leukemia,704 nM
same,TGI,CCRF-CEM leukemia,> 30.4 µM
same,GI50,COLO 205 colon,794 nM
same,TGI,COLO 205 colon,4.68 µM
same,GI50,DU-145 prostate,1490 nM
same,TGI,DU-145 prostate,> 23.1 µM
same,GI50,EKVX NSCLC,975 nM
same,TGI,EKVX NSCLC,7.3 µM
same,GI50,HCC-2998 colon,814 nM
same,TGI,HCC-2998 colon,5.54 µM
same,GI50,HCT-116 colon,711 nM
same,TGI,HCT-116 colon,3.48 µM
same,GI50,HCT-15 colon,851 nM
same,TGI,HCT-15 colon,8.51 µM
same,GI50,HL-60(TB) leukemia,1240 nM
same,TGI,HL-60(TB) leukemia,4.97 µM
same,GI50,HOP-62 NSCLC,1350 nM
same,TGI,HOP-62 NSCLC,14.9 µM
same,GI50,HOP-92 NSCLC,800 nM
same,TGI,HOP-92 NSCLC,4.81 µM
same,GI50,HS 578T breast,888 nM
same,TGI,HS 578T breast,7.11 µM
same,GI50,HT29 colon,1040 nM
same,TGI,HT29 colon,> 33.3 µM
same,GI50,IGROV1 ovarian,1380 nM
same,TGI,IGROV1 ovarian,10.8 µM
same,GI50,K-562 leukemia,821 nM
same,TGI,K-562 leukemia,> 24.2 µM
same,GI50,KM12 colon,933 nM
same,TGI,KM12 colon,6.15 µM
same,GI50,LOX IMVI melanoma,520 nM
same,TGI,LOX IMVI melanoma,1260 nM
same,GI50,M14 melanoma,898 nM
same,TGI,M14 melanoma,3.35 µM
same,GI50,MALME-3M melanoma,886 nM
same,TGI,MALME-3M melanoma,3.62 µM
same,GI50,MCF7 breast,968 nM
same,TGI,MCF7 breast,> 16.7 µM
same,GI50,MDA-MB-231 breast,853 nM
same,TGI,MDA-MB-231 breast,5.23 µM
same,GI50,MDA-MB-435,1100 nM
same,TGI,MDA-MB-435,4.29 µM
same,GI50,MOLT-4 leukemia,1010 nM
same,TGI,MOLT-4 leukemia,13.6 µM
same,GI50,NCI-H226 lung,929 nM
same,TGI,NCI-H226 lung,5.25 µM
same,GI50,NCI-H23 lung,1210 nM
same,TGI,NCI-H23 lung,8.03 µM
same,GI50,NCI-H460 lung,813 nM
same,TGI,NCI-H460 lung,6.07 µM
same,GI50,NCI-H522 lung,1290 nM
same,TGI,NCI-H522 lung,9.98 µM
same,GI50,NCI/ADR-RES ovarian,1100 nM
same,TGI,NCI/ADR-RES ovarian,9.9 µM
same,GI50,OVCAR-3 ovarian,942 nM
same,TGI,OVCAR-3 ovarian,5.62 µM
same,GI50,OVCAR-4 ovarian,508 nM
same,TGI,OVCAR-4 ovarian,22.2 µM
same,GI50,OVCAR-5 ovarian,1250 nM
same,TGI,OVCAR-5 ovarian,6.22 µM
same,GI50,OVCAR-8 ovarian,1170 nM
same,TGI,OVCAR-8 ovarian,> 33.3 µM
same,GI50,PC-3 prostate,780 nM
same,TGI,PC-3 prostate,20.7 µM
same,GI50,RPMI-8226 leukemia,693 nM
same,TGI,RPMI-8226 leukemia,2960 nM
same,GI50,RXF 393 renal,807 nM
same,TGI,RXF 393 renal,7.53 µM
same,GI50,SF-268 CNS,1650 nM
same,TGI,SF-268 CNS,> 32.2 µM
same,GI50,SF-295 CNS,1390 nM
same,TGI,SF-295 CNS,7.92 µM
same,GI50,SF-539 CNS,1010 nM
same,TGI,SF-539 CNS,9.26 µM
same,GI50,SK-MEL-2 melanoma,1030 nM
same,TGI,SK-MEL-2 melanoma,4.21 µM
same,GI50,SK-MEL-28 melanoma,1920 nM
same,TGI,SK-MEL-28 melanoma,8.26 µM
same,GI50,SK-MEL-5 melanoma,527 nM
same,TGI,SK-MEL-5 melanoma,1170 nM
same,GI50,SK-OV-3 ovarian,4.41 µM
same,TGI,SK-OV-3 ovarian,18.9 µM
same,GI50,SN12C renal,1490 nM
same,TGI,SN12C renal,18.9 µM
same,GI50,SNB-19 CNS,3.41 µM
same,TGI,SNB-19 CNS,> 33.3 µM
same,GI50,SNB-75 CNS,825 nM
same,TGI,SNB-75 CNS,2790 nM
same,GI50,SR leukemia,720 nM
same,TGI,SR leukemia,4.93 µM
same,GI50,SW-620 colon,1050 nM
same,TGI,SW-620 colon,7.96 µM
same,GI50,T-47D breast,732 nM
same,TGI,T-47D breast,> 19.2 µM
same,GI50,TK-10 renal,2330 nM
same,TGI,TK-10 renal,> 29.6 µM
same,GI50,U251 CNS,1140 nM
same,TGI,U251 CNS,17.3 µM
same,GI50,UACC-257 melanoma,1330 nM
same,TGI,UACC-257 melanoma,7.63 µM
same,GI50,UACC-62 melanoma,659 nM
same,TGI,UACC-62 melanoma,1450 nM
same,GI50,UO-31 renal,932 nM
same,TGI,UO-31 renal,4.2 µM
